Measured values published in patent US10448639B2, “Fungicidal pyrazoles” (FMC CORPORATION, priority 2009, dated 2019).

Tests used:
[1] = system: Erysiphe graminis f sp. tritici; test: Test J: wheat powdery mildew, preventive spray on wheat seedlings, visual disease rating; conditions: wheat powdery mildew, preventive spray; 100 = 100% disease control, 0 = no control
[2] = system: Septoria tritici; test: Test G: wheat leaf blotch, preventive spray on wheat seedlings, visual disease rating; conditions: wheat leaf blotch, preventive spray; 100 = 100% disease control, 0 = no control
[3] = system: Puccinia recondita f. sp. tritici; test: Test I: wheat leaf rust, preventive spray on wheat seedlings, visual disease rating; conditions: wheat leaf rust, preventive spray; 100 = 100% disease control, 0 = no control
[4] = system: Botrytis cinerea; test: Test B: tomato Botrytis, preventive spray on tomato seedlings, visual disease rating; conditions: tomato Botrytis, preventive spray; 100 = 100% disease control, 0 = no control
[5] = system: Alternaria solani; test: Test C: tomato early blight, preventive spray on tomato seedlings, visual disease rating; conditions: tomato early blight, preventive spray; 100 = 100% disease control, 0 = no control
[6] = system: Septoria nodorum; test: Test F: Septoria glume blotch, preventive spray on wheat seedlings, visual disease rating; conditions: Septoria glume blotch on wheat, preventive spray; 100 = 100% disease control, 0 = no control
[7] = system: Puccinia recondita f. sp. tritici; test: Test H: wheat leaf rust, curative spray on inoculated wheat seedlings, visual disease rating; conditions: wheat leaf rust, curative spray; 100 = 100% disease control, 0 = no control
Description: General protocol for preparing test suspensions for Tests A-J: the test compounds were first dissolved in acetone in an amount equal to 3% of the final volume and then suspended at the desired concentration (in ppm) in acetone and purified water (50/50 mix by volume) containing 250 ppm of the surfactant Trem® 014 (polyhydric alcohol esters). The resulting test suspensions were then used in Tests A-J. Spraying a 200 ppm test suspension to the point of run-off on the test plants was the equivalent of a rate of 500 g/ha. Unless otherwise indicated, the rating values indicate a 200 ppm test suspension was used. (An asterisk “*” next to the rating value indicates a 40 ppm test suspension was used.)
Wheat seedlings were inoculated with a spore suspension of Puccinia recondita f. sp. tritici (the causal agent of wheat leaf rust) and incubated in a saturated atmosphere at 20° C. for 24 h, and then moved to a growth chamber at 20° C. for 2 days. At the end of this time the test suspension was sprayed to the point of run-off, and then the seedlings were moved to a growth chamber at 20° C. for 6 days after which time visual disease ratings were made.

| Structure (SMILES) | Test J rating (% disease control) [1] [%] | Test G rating (% disease control) [2] [%] | Test I rating (% disease control) [3] [%] | Test B rating (% disease control) [4] [%] | Test C rating (% disease control) [5] [%] | Test F rating (% disease control) [6] [%] | Test H rating (% disease control) [7] [%] |
| --- | --- | --- | --- | --- | --- | --- | --- |
| Cc1nn(C)c(Oc2c(F)cc([N+](=O)[O-])cc2F)c1-c1ccc(F)cc1Cl [compound 121] | 97 | 99 | 100 | 100 | 86 | 82 | 83 |
| Cc1nn(C)c(Oc2ccc(F)cc2[N+](=O)[O-])c1-c1ccc(F)cc1Cl [compound 122] | 0 | 0 | 0 | 0 | 0 | 0 | 11 |
| COc1ccc(Nc2c(-c3c(F)cc(C#N)cc3F)c(C)nn2C)cc1 [compound 126] | 0 | 100 | 94 | 99 | 96 | 60 | 0 |
| COc1cc(Nc2c(-c3c(F)cc(C#N)cc3F)c(C)nn2C)ccc1F [compound 127] | 0 | 99 | 68 | 70 | 0 | 0 | 0 |
| COc1cc(F)c(-c2c(C)nn(C)c2Nc2ncc(F)cc2F)c(F)c1 [compound 128] | 100 | 99 | 100 | 100 | 100 | 97 | 66 |
| Cc1nn(C)c(Oc2ccc(Cl)c(F)c2)c1-c1c(F)cc(F)cc1F [compound 129] | 0 | 96 | 0 | 99 | 0 | 0 | 0 |
| Cc1nn(C)c(Oc2ccc(Br)c(F)c2)c1-c1c(F)cc(F)cc1F [compound 130] | 0 | 99 | 19 | 97 | 0 | 0 | 0 |
| Cc1nn(C)c(Oc2ccc([N+](=O)[O-])c(F)c2)c1-c1c(F)cc(F)cc1F [compound 131] | 94 | 98 | 86 | 99 | 0 | 0 | 0 |
